pIC50: −log10 of the molar value.

The target of this test is T1, human TLR7 (Homo sapiens, UniProt Q9NYK1).
T1 construct: host or cells: HEK293 (HEK-Blue hTLR7)
T1 sequence (Q9NYK1 27-1049): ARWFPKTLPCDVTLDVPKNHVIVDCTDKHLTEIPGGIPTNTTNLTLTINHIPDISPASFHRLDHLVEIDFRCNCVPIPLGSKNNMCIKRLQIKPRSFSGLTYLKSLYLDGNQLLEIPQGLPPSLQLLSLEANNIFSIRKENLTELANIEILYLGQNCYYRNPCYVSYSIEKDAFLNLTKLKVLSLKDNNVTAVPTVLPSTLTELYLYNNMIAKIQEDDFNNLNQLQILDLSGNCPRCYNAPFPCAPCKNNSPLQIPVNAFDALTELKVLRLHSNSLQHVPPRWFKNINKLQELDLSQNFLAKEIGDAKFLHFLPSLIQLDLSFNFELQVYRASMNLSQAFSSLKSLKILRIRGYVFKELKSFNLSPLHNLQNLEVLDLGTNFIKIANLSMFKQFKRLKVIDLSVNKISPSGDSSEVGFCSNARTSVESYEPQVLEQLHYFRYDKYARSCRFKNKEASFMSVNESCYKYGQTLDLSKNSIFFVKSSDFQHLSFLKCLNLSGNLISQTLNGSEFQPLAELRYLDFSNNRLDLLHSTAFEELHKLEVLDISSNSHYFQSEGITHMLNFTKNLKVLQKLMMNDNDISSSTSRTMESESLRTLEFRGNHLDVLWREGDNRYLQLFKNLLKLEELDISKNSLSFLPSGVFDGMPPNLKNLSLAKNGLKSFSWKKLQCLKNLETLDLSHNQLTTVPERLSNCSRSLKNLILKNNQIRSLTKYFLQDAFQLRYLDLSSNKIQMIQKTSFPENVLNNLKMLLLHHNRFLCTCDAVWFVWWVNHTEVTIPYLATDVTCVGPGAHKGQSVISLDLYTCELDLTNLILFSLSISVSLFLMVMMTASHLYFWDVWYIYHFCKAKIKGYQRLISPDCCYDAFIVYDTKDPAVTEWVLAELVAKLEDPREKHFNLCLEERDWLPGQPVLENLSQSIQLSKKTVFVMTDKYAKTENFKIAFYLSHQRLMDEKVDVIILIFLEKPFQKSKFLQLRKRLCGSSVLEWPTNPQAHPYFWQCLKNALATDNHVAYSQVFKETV
Description: HEK293-Blue-hTLR-7 cells assay (SEAP reporter, R848 stimulation). Format: cell-based. Conditions: HEK293-Blue-hTLR7 cells, R848, 20 hrs; read-out: HEK/hTLR7 IC50. Put shortly: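 HEK293-Blue-hTLR7 cells (NF-κB/AP-1-driven SEAP reporter) were stimulated with R848 alongside serially diluted compound at 1% final DMSO for 20 h at 37 °C. Supernatant SEAP was then developed with QUANTI-Blue for 2 h at 37 °C and absorbance read at 620–655 nm; antagonism is measured as reduced reporter signal.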
As to `Cc1cc(N2CCN(C[C@H]3CN(c4ccc(C#N)c5ncccc45)C[C@@H](C)O3)CC2)nc(N2CCNC(C(C)(C)O)C2)n1` (stereo partly drawn) [Example 81, 5-[(2S,6R)-2-[[4-[2-[3-(1-hydroxy-1-methyl-ethyl)piperazin-1-yl]-6-methyl-pyrimidin-4-yl]piperazin-1-yl]methyl]-6-methyl-morpholin-4-yl]quinoline-8-carbonitrile], the pIC50 was 7.66. For `Cc1cc(N2CCN(C[C@H]3CN(c4ccc(C#N)c5ncccc45)C[C@@H](C)O3)CC2)nc(N2CC(N)C2)n1` [Example 87, 5-[(2S,6R)-2-[[4-[2-(3-aminoazetidin-1-yl)-6-methyl-pyrimidin-4-yl]piperazin-1-yl]methyl]-6-methyl-morpholin-4-yl]quinoline-8-carbonitrile], the pIC50 is 8.10. To `CO[C@H]1CN(c2nc(C)cc(N3CCN(C[C@H]4CN(c5ccc(C#N)c6ncccc56)C[C@@H](C)O4)CC3)n2)C[C@@H]1N` (single isomer, unassigned) [Example 69A] belongs 7.96; to `COC1CN(c2nc(C)cc(N3CCN(C[C@H]4CN(c5ccc(C#N)c6ncccc56)C[C@@H](C)O4)CC3)n2)CC1N` (single isomer, unassigned) [Example 88], 7.68.

(Values after patent US20210395239A1 (Hoffmann-La Roche Inc., priority 2018, published 2021).)
